The nature of data set [1]: Pharmacokinetic evaluation in rats. It is filed as in vivo. The settings on record: single dose; for absolute absorption rate: compared with hydrogen-substituted reference substance (FIGS. 1 to 4). As for the experimental part: Pharmacokinetic tests were carried out in rats as follows for the compounds obtained from Examples 1 and 2 above and the compound of Example 2 in which deuterium was substituted with hydrogen (hydrogen-substituted reference substance).
After the test substances were prepared to 2.5 or 5 mg/mL using WFI (water for injection), the rats were administered as a single dose at a prescribed dose (10 mL/kg), and blood was collected at a predetermined time (0, 0.25, 0.5, 1, 2, 4, 6, 8, 10, 24 hours), and then plasma was separated. Analysis of the drug was carried out using HPLC (XBridge column C18, Waters, mobile phase of 0.1% formic acid:acetonitrile (30:70, %/%)) and MS/MS (ESI positive, MRM), and concentrations of 5, 50, 100, 500, 1,000, and 5,000 ng/ml were prepared and measured by mixing rat blank plasma and each commercial standard solution at a ratio of 9:1. In addition, QC sample preparations were prepared at concentrations of 100, 750, and 2,500 ng/ml by mixing rat blank plasma and QC standard solution in a 9:1 ratio. As for the pretreatment method, 100 μl of the plasma sample was transferred to a centrifuge tube, and 10 μl of the internal standard solution and 300 μl of methanol were added thereto, and then mixed for about 30 seconds. The tube was centrifuged for about 5 minutes at a rotation speed of 12,000 rpm (4° C.) using a centrifuge, and the supernatant was taken, transferred to an LC vial and then injected into the device. Thereafter, the concentration of the drug in rat plasma was quantified by applying the previously verified assay. For pharmacokinetic parameters, WinNonlin 5.2 (Pharsight, USA) program was used, and AUC0-t, AUC0-∞, Cmax, Tmax, and t1/2 were calculated by noncompartment modeling (best fit). Pharmacokinetic parameter results were expressed as mean and standard deviation (SD), and statistically processed using the SPSS program (Statistical Package for the Social Sciences, 10.0K, USA).

The next data set has as its system BaF3 (de119/T790M/C797S). Kind of data set: Measurement of inhibitory effect on cancer cell growth (GI50). In kind it is cell-based. The following applies: for GI50: Mus musculus, concentration to inhibit 50% of cell growth, BaF3 cells with EGFR de119/T790M/C797S; for activity against cancer cell lines expressing the C797S mutant epidermal growth factor receptor: summary in words of Table 1.

What is called GI50 is the concentration at which growth is held to half of that of the control. Low values mean more potent growth inhibition, high ones less potent growth inhibition.

For the molecule `[2H]C([2H])([2H])N(c1ccccc1Nc1nc(Nc2ccc(N3CCC(N4CCN(C)CC4)CC3)cc2OC)ncc1Cl)S(C)(=O)=O` [Example 2], in data set [1], the “relative absorption rate compared to the hydrogen-substituted reference substance” value stood at 111.4% and the absolute absorption rate result was “equivalent to or greater than the control drug”. Also, in the data set with BaF3 (de119/T790M/C797S), the GI50 was no more than 500 nM and the “activity against cancer cell lines expressing the C797S mutant epidermal growth factor receptor” value (shortened to “activity”) was “excellent activity”.

In the case of `C=CC(=O)Nc1cc(Nc2nccc(-c3cn(C)c4ccccc34)n2)c(OC)cc1N(C)CCN(C)C` [Osimertinib, osimertinib, reference compound], in the data set with BaF3 (de119/T790M/C797S), the GI50 is greater than 1000 nM and the “activity” value is reported as “poor activity”.

As for `[2H]C([2H])([2H])N1CCN(C2CCN(c3ccc(Nc4ncc(Cl)c(Nc5ccccc5N(C)S(C)(=O)=O)n4)c(OC)c3)CC2)CC1` [Example 1, N-(2-((5-Chloro-2-((2-Methoxy-4-(4-(4-(Methyl-d3)Piperazin-1-Yl)Piperidin-1-Yl)Phenyl)Amino)Pyrimidin-4-Yl)Amino)Phenyl)-N-Methylmethanesulfonamide], the absolute absorption rate entry in data set [1] is “equivalent to or greater than the control drug”. For the same molecule, in the data set with BaF3 (de119/T790M/C797S), the GI50 is no more than 500 nM and the “activity” value is on record as “excellent activity”.
